Measured values: patent publication US20120283316A1, “Delivery of Therapeutic Agents Using Oligonucleotide-Modified Nanoparticles As Carriers” (priority 2009, published 2012)
Like-named read-outs stand apart in the source and are kept apart here.

Experiments:
MES-SA/Dx5 cells [1] = assay: MTT assay (cytotoxicity) in paclitaxel-resistant MES-SA/Dx5 cells; type: cell-based, human
Protocol: (§1) MCF7, SKOV-3 and MES-SA/Dx5 cells were purchased from American Type Culture Collection (ATCC, Manassas, Va., USA). […] MCF7 cells were cultured in Eagle's Minimum Essential Medium (EMEM) supplemented with 10% fetal bovine serum (FBS) and 0.01 mg/ml bovine insulin. SKOV-3 and MES-SA/Dx5 cells were cultured using McCoy's 5A modified media supplemented with 10% FBS. All experiments were performed in the aforementioned cell-specific media in a 5% CO2 incubator at 37° C.
(§2) Following 24 hours of growth, media was replaced with 200 μL of corresponding sample solutions, which were freshly prepared at varying concentrations in complete cell culture media. Cells in media containing 10% FBS with nothing added were used as controls. After 12 hours or 48 hours of treatment, cells were rinsed and cultured with fresh medium containing 0.5 mg/mL of MTT for an additional 3 hours. Following careful aspiration of MTT solution and media after MTT incubation, 200 μL of MTT solubilization solution was added to each well and thoroughly mixed. The optical density at 570 nm was measured using a Safire microplate reader (Tecan Systems, Inc., San Jose, Calif.). Background absorbance at 690 nm was subtracted. Values were expressed as a percentage of the control (incubated with media alone). All conditions were done in sextuplicate in two independent experiments for each cell line.

[2] = tested on: SKOV-3 ovarian cancer cells; assay: MTT assay (cytotoxicity) in SKOV-3 cells; type: cell-based; details: Homo sapiens, SK-OV-3, paclitaxel-equivalent concentration
Protocol: MCF7, SKOV-3 and MES-SA/Dx5 cells were purchased from American Type Culture Collection (ATCC, Manassas, Va., USA). Media, Dulbecco's phosphate buffered saline (DPBS), and 0.25% trypsin/EDTA were purchased from Invitrogen (Carlsbad, Calif., USA). MCF7 cells were cultured in Eagle's Minimum Essential Medium (EMEM) supplemented with 10% fetal bovine serum (FBS) and 0.01 mg/ml bovine insulin. SKOV-3 and MES-SA/Dx5 cells were cultured using McCoy's 5A modified media supplemented with 10% FBS. All experiments were performed in the aforementioned cell-specific media in a 5% CO2 incubator at 37° C.
as §2, with “Briefly, cells were seeded on 96-well plates for 24 hours before the assay at a density of 1.5×10^4 cells/well. Following” for “Following”, “Following careful aspiration of MTT solution and media after MTT incubation, 200 μL of MTT solubilization solution was added to each well and thoroughly mixed.” left out, “All conditions were done in sextuplicate in two independent experiments for each cell line.” left out

MES-SA/Dx5 cells [3] = assay: Fluorescent TUNEL assay (apoptosis) in MES-SA/Dx5 cells; type: cell-based, human; details: MES-SA/Dx5, 48 hours, 100 nM paclitaxel or DNA strand
Protocol: MCF7 and MES-SA/Dx5 cells were seeded on 0.17 mm thick coverslips in 12-well plates at a density of 2×10^5 cells/well for 24 hours prior to fluorescent TUNEL assay. Cells were treated with nothing, DNA-AuNPs at a DNA strand concentration of 100 nM (negative controls), 100 nM of free paclitaxel and compound 1 (positive controls), PTX-DNA-AuNPs at the equivalent paclitaxel concentrations of 50 nM and 100 nM (samples), respectively, for 48 hours. Live cells were rinsed and stained in accordance with instructions and materials for adherent cultured cells provided by Chemicon International ApopTag Plus Fluorescein In situ Apoptosis Detection Kit S7111 (Temecula, Calif.). ApopTag utilizes the terminal deoxynucleotidyl transferase (TdT) enzyme to amplify the fluorescein-conjugated anti-digoxigenin antibody, a secondary antibody towards digoxigenin-labeled nucleotide-labeled 30-OH termini on DNA fragments. Images were acquired on a Zeiss LSM 510 inverted microscope (computer controlled using Zeiss Zen software).
MCF7 or MES-SA/Dx5 cells were incubated with drug-free DNA-AuNPs, free paclitaxel, compound 1 and PTX-DNA@AuNPs, respectively, at varying concentrations for 48 hours.

MCF7 cells = assay: MTT assay (cytotoxicity) in MCF7 cells; type: cell-based; details: Homo sapiens
Protocol: as §1, §2

[4] = Dynamic light scattering (DLS) hydrodynamic size and dispersion in PBS; type: physicochemical; details: 25 μM paclitaxel in PBS, DLS and TEM
Protocol: PTX-DNA-AuNPs or DNA-AuNPs were resuspended in 200 uL PBS buffer with oligonucleotide strands of an equivalent concentration of 25 μM. Hydrodynamic size measurements were conducted using the Zetasizer Nano ZS (Malvern, Worcestershire, U.K.). The size measurements were performed at 25° C. at a 173° scattering angle in disposable micro cuvettes (minimum volume 40 μL, Malvern, Worcestershire, U.K.). The mean hydrodynamic diameter was determined by cumulative analysis. Transmission Electron Microscopy (TEM) was performed using a 200 kV Hitachi H-8100 TEM (EPIC, Northwestern University). Diluted PTX-DNA-AuNPs in deionized water were pipetted onto a commercial carbon TEM grid (Ted Pella Inc., Redding, Calif.). Upon air drying for 2 hours, samples were then observed within a Hitachi H-8100 TEM.

dispersion in PBS [4]: severe aggregation
SMILES: CC(=O)O[C@H]1C(=O)[C@@]2(C)[C@H]([C@H](OC(=O)c3ccccc3)[C@]3(O)C[C@H](OC(=O)[C@H](O)[C@@H](NC(=O)c4ccccc4)c4ccccc4)C(C)=C1C3(C)C)[C@]1(OC(C)=O)CO[C@@H]1C[C@@H]2O [paclitaxel]
viability at 0.2 µM (MES-SA/Dx5 cells [1]; Homo sapiens, 48 h, MES-SA/Dx5, 2 days incubation, 200 nM drug concentration, % of control, read-out: cell viability): 76%
IC50 (MES-SA/Dx5 cells [1]; Homo sapiens, MES-SA/Dx5, 12 h incubation, paclitaxel-equivalent concentration, read-out: IC50 (nM Paclitaxel)): > 1000 nM
IC50 (MES-SA/Dx5 cells [1]; Homo sapiens, MES-SA/Dx5, 48 h incubation, paclitaxel-equivalent concentration, read-out: IC50 (nM Paclitaxel)): > 1000 nM
IC50 (MES-SA/Dx5 cells [1]; Homo sapiens, resistant MES-SA/Dx5 cells, 12 hours and 48 hours, read-out: IC50 values): > 1000 nM
therapeutic activity (MES-SA/Dx5 cells [1]; paclitaxel-resistant MES-SA/Dx5, 200 nM, 2 days): did not display any significant therapeutic activity
IC50 ([2]; SKOV-3, 12 h incubation): 176 nM
IC50 ([2]; SKOV-3, 48 h incubation): 28.9 nM
TUNEL staining (apoptosis) (MES-SA/Dx5 cells [3]): lower fraction of TUNEL-positive signals
IC50 (MCF7 cells; MCF7, 12 h incubation, paclitaxel-equivalent concentration, read-out: IC50 (nM Paclitaxel)): > 1000 nM
IC50 (MCF7 cells; MCF7, 12 hour incubation, read-out: IC50 value): > 1000 nM
IC50 (MCF7 cells; MCF7, 48 h incubation, paclitaxel-equivalent concentration, read-out: IC50 (nM Paclitaxel)): 193 nM
